Reference: patent US9006150B2, “Structural nucleic acid guided chemical synthesis” (Vipergen ApS, priority 2004, dated 2015)
“Also recorded” adds a separate entry of the source.

Key:
[1] = tested on: 3E7 anti Leu-enkephalin monoclonal antibody; assay type: binding
[2] = tested on: W6/32 monoclonal antibody

Row | Substance | binding to 3E7 antibody (gel-shifted band) [1] | gel-shifted band with IgG2A isotype matched negative control antibody [2]
1 | Gly-Leu-Phe-Tyr-Gly-DNA (GLFYG; DNA conjugate; printed: Gly-Leu-Phe-Tyr-Gly-) [R2 product, Structural DNA display product with scrambled Leu-enkephalin, negative control for the partitioning assay] | does not bind to 3E7 | 
2 | Tyr-Gly-Gly-Phe-Leu-DNA [R1 product] | binding to 3E7 antibody; also recorded: specific binding | absent
